Literature values, collected in patent US20140309164A1, “DEUTERATED NUCLEOSIDE PRODRUGS USEFUL FOR TREATING HCV” (priority 2013, published 2014).

What was measured:
[1] = pulled from clinical trials
HCV = conditions: percent of the trial participants; several large clinical trials

In the case of COc1nc(N)nc2c1ncn2[C@@H]1O[C@H](COP(=O)(N[C@@H](C)C(=O)OCC(C)(C)C)Oc2cccc3ccccc23)[C@@H](O)[C@@]1(C)O (some centres unmarked) [BMS-986094], the “fatal adverse event in clinical trials” value [1] is listed as “death of a patient due to heart failure”.
For CC(C)OC(=O)[C@H](C)NP(=O)(OC[C@H]1O[C@@H](n2ccc(=O)[nH]c2=O)C(C)(F)C1O)Oc1ccccc1 (some centres unmarked) [Sovaldi, Sofosbuvir], the “sustained viral response (SVR) of twelve weeks” value (HCV) is listed as 50-90%.
For CC(C)OC(=O)[C@H](C)NP(=S)(OC[C@H]1O[C@@H](n2ccc(=O)[nH]c2=O)[C@](C)(O)[C@@H]1O)Oc1ccccc1 (some centres unmarked) [VX-135], the “sustained viral response rate four weeks after the completion of treatment (SVR4), intent-to-treat analysis” value (HCV genotype 1; 200 mg VX-135 in combination with daclatasvir, treatment-naive genotype 1, 10 of 12) is given as 83%, the “completion of treatment rate (SVR4)” value (HCV genotype 1; eleven patients who completed 12 weeks of treatment, VX-135 in combination with daclatasvir) is given as 91% and the serious adverse event (HCV genotype 1; one patient, VX-135 in combination with daclatasvir) is given as “serious adverse event of vomiting/nausea”.
